In general, IC50 refers to the concentration that inhibits the measured activity by half.

Assay [1] deals with GST-CBP(1081-1197) bromodomain (Homo sapiens (Human), UniProt Q92793). Put plainly: CBP AlphaScreen Assay. The following applies: binding to biotin-H4(1-21) Ac-K5/8/12/16. The method, then:
(§1) Specific binding of the CBP or BRD4 bromodomain to the acetylated peptide derived from the H4 histone substrate (tetra acetylated H4(1-21) Ac-K5/8/12/16) was measured in absence or presence of inhibitors. The GST tagged bromodomains of CBP (1081-1197) and BRD4 (49-170) were obtained from BPS Bioscience and binding to the biotinylated H4(1-21) Ac-K5/8/12/16 (AnaSpec. 64989) was assessed via AlphaScreen technology (Perkin Elmer).
(§2) 5 nM GST-CBP(1081-1197) and 20 nM biotin-H4(1-21) Ac-K5/8/12/16 (AnaSpec. 64989) were incubated with varying concentrations of CBP inhibitors in 15 μL of buffer containing 50 mM HEPES 7.5, […], 1 mM TCEP, and 0.003% Tween-20. After 30 minutes incubation at room temperature, 15 μL of detection buffer (BPS Bio. 33006) containing 7 μg/mL of Glutathione AlphaLisa acceptor beads (Perkin Elmer AL109) and 14 μg/mL of Streptavidin donor beads (Perkin Elmer 676002) was then added to the previous mixture. The reaction was incubated for an additional 2 hours at room temperature, and the AlphaScreen signal was quantified using the Envision Multilabel plate reader. As negative control, GST-CBP(1081-1197) was incubated with the non-acetylated biotin-H4(1-21) peptide(AnaSpec. 62555) and in presence of 0.25% of final DMSO concentration.
(§3) the binding of 2.5 nM of BRD4(49-170) to 10 nM biotin-H4(1-21) Ac-K5/8/12/16 (AnaSpec. 64989) was assessed following the same procedure described for the CBP assay. The standard dose response curves were fitted by Genedata Screener software using the variable-slope model: Signal=Signalnegative control+(SignalDMSO control−Signalnegative control)/(1+(IC50/Dose)^Hill slope).
(§4) Only Signal and Dose in the equation were treated as know values.
In general terms: Alpha assays give light when donor and acceptor beads are brought close together.

The next assay deals with BRD4(49-170) bromodomain (Homo sapiens (Human), UniProt O60885). Kind of assay: BRD4 AlphaScreen Assay. The following applies: binding to biotin-H4(1-21) Ac-K5/8/12/16. The method, then: as §1, §2, §3, §4

Chain of GST-CBP(1081-1197) bromodomain (Q92793 1081-1197): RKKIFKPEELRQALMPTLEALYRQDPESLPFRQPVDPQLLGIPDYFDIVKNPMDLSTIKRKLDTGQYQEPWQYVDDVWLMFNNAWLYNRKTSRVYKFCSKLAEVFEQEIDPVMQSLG

Consider `CC1C(=O)N(C)Cc2c(-c3c(F)ccc4cc(C5CCOCC5)ncc34)nc(C3CCOCC3)n21` (single isomer, unassigned) [Example 34b, 1-(7-Fluoro-3-(tetrahydro-2H-pyran-4-yl)isoquinolin-8-yl)-5,7-dimethyl-3-(tetrahydro-2H-pyran-4-yl)-7,8-dihydroimidazo[1,5-a]pyrazin-6(5H)-one], for which the IC50 turned out to be 8 nM in assay [1] and 1230 nM on BRD4(49-170) bromodomain.

Consider `CC1C(=O)N(C)Cc2c(-c3c(F)ccc4nc(-c5cnn(C)c5)c(C(F)F)cc34)nc(C3CCOCC3)n21` (single isomer, unassigned) [Example 36a, 1-(3-(Difluoromethyl)-6-fluoro-2-(1-methyl-1H-pyrazol-4-yl)quinolin-5-yl)-5,7-dimethyl-3-(tetrahydro-2H-pyran-4-yl)-7,8-dihydroimidazo[1,5-a]pyrazin-6(5H)-one], for which the figures for the IC50 (in assay [1]; at BRD4(49-170) bromodomain) were 2 nM and 624 nM, respectively.

Turning to `CC1C(=O)N(C)Cc2c(-c3c(F)ccc4nc(-c5cnn(C)c5)c(C(F)F)cc34)nc(C3CCOCC3)n21` (single isomer, unassigned) [Example 36b, 1-(3-(Difluoromethyl)-6-fluoro-2-(1-methyl-1H-pyrazol-4-yl)quinolin-5-yl)-5,7-dimethyl-3-(tetrahydro-2H-pyran-4-yl)-7,8-dihydroimidazo[1,5-a]pyrazin-6(5H)-one], the values for the IC50 (in assay [1]; on BRD4(49-170) bromodomain) were 144 nM and not below 25000 nM, respectively.

In the case of `Cc1ncc(-c2cc3ccc(F)c(-c4nc(C5CCOCC5)n5c4CN(C)C(=O)C5C)c3cn2)s1` (single isomer, unassigned) [Example 37a, 1-(7-Fluoro-3-(2-methylthiazol-5-yl)isoquinolin-8-yl)-5,7-dimethyl-3-(tetrahydro-2H-pyran-4-yl)-7,8-dihydroimidazo[1,5-a]pyrazin-6(5H)-one], the IC50 in assay [1] came out at 1 nM; on BRD4(49-170) bromodomain, 215 nM.

Regarding `Cc1ncc(-c2cc3ccc(F)c(-c4nc(C5CCOCC5)n5c4CN(C)C(=O)C5C)c3cn2)s1` (single isomer, unassigned) [Example 37b, 1-(7-Fluoro-3-(2-methylthiazol-5-yl)isoquinolin-8-yl)-5,7-dimethyl-3-(tetrahydro-2H-pyran-4-yl)-7,8-dihydroimidazo[1,5-a]pyrazin-6(5H)-one], the IC50 in assay [1] was 647 nM; on BRD4(49-170) bromodomain, not below 25000 nM.

Consider `Cc1ncc(-c2cc3ccc(C)c(-c4nc(C5CCOCC5)n5c4CN(C)C(=O)C5C)c3cn2)s1` (single isomer, unassigned) [Example 38a], for which the IC50 in assay [1] amounted to 8 nM; at BRD4(49-170) bromodomain, 1810 nM.

Turning to `Cc1ncc(-c2cc3ccc(C)c(-c4nc(C5CCOCC5)n5c4CN(C)C(=O)C5C)c3cn2)s1` (single isomer, unassigned) [Example 38b], the values for the IC50 (in assay [1]; at BRD4(49-170) bromodomain) were 302 nM and 4860 nM, respectively.

On to `CC1C(=O)N(C)Cc2c(-c3cccc4cc(-c5noc(=O)[nH]5)ncc34)nc(C3CC3)n21` (single isomer, unassigned) [Example 44a, 3-(8-(3-Cyclopropyl-5,7-dimethyl-6-oxo-5,6,7,8-tetrahydroimidazo[1,5-a]pyrazin-1-yl)isoquinolin-3-yl)-1,2,4-oxadiazol-5(4H)-one], for which the half-maximal inhibitory concentration (IC50) in assay [1] was 68 nM; on BRD4(49-170) bromodomain, more than 25000 nM.

`CC1C(=O)N(C)Cc2c(-c3cccc4cc(-c5noc(=O)[nH]5)ncc34)nc(C3CC3)n21` (single isomer, unassigned) [Example 44b, 3-(8-(3-Cyclopropyl-5,7-dimethyl-6-oxo-5,6,7,8-tetrahydroimidazo[1,5-a]pyrazin-1-yl)isoquinolin-3-yl)-1,2,4-oxadiazol-5(4H)-one]: the values for the IC50 (in assay [1]; on BRD4(49-170) bromodomain) were 1 nM and 1460 nM, respectively.

As for `CC1C(=O)N(C)Cc2c(-c3cccc4nc(-c5noc(=O)[nH]5)c(C(F)F)cc34)nc(C3CC3)n21` (single isomer, unassigned) [Example 45a, 3-(5-(3-Cyclopropyl-5,7-dimethyl-6-oxo-5,6,7,8-tetrahydroimidazo[1,5-a]pyrazin-1-yl)-3-(difluoromethyl)quinolin-2-yl)-1,2,4-oxadiazol-5(4H)-one], the values for the IC50 (in assay [1]; at BRD4(49-170) bromodomain) were 1 nM and 112 nM, respectively.

Turning to `CC1C(=O)N(C)Cc2c(-c3cccc4nc(-c5noc(=O)[nH]5)c(C(F)F)cc34)nc(C3CC3)n21` (single isomer, unassigned) [Example 45b, 3-(5-(3-Cyclopropyl-5,7-dimethyl-6-oxo-5,6,7,8-tetrahydroimidazo[1,5-a]pyrazin-1-yl)-3-(difluoromethyl)quinolin-2-yl)-1,2,4-oxadiazol-5(4H)-one], the concentration for half-maximal inhibition (IC50) was determined as 29 nM in assay [1] and 5400 nM on BRD4(49-170) bromodomain.

For the compound `CC1C(=O)N(C)Cc2c(-c3cccc4nc(-c5cnn(C)c5)c(C#N)cc34)nc(C3CC3)n21` (single isomer, unassigned) [Example 56a, 5-(3-cyclopropyl-5,7-dimethyl-6-oxo-5,6,7,8-tetrahydroimidazo[1,5-a]pyrazin-1-yl)-2-(1-methyl-1H-pyrazol-4-yl)quinoline-3-carbonitrile], the IC50 was determined as 424 nM in assay [1] and 25000 nM on BRD4(49-170) bromodomain.

Take `CC1C(=O)N(C)Cc2c(-c3cccc4nc(-c5cnn(C)c5)c(C#N)cc34)nc(C3CC3)n21` (single isomer, unassigned) [Example 56b, 5-(3-cyclopropyl-5,7-dimethyl-6-oxo-5,6,7,8-tetrahydroimidazo[1,5-a]pyrazin-1-yl)-2-(1-methyl-1H-pyrazol-4-yl)quinoline-3-carbonitrile]: the IC50 in assay [1] is 1 nM; on BRD4(49-170) bromodomain, 132 nM.

Take `CCC1C(=O)N(C)Cc2c(-c3cccc4nc(-c5cnn(C)c5)c(C(F)F)cc34)nc(C3CCOCC3)n21` (single isomer, unassigned) [Example 64a, 1-(3-(difluoromethyl)-2-(1-methyl-1H-pyrazol-4-yl)quinolin-5-yl)-5-ethyl-7-methyl-3-(tetrahydro-2H-pyran-4-yl)-7,8-dihydroimidazo[1,5-a] pyrazin-6(5H)-one]: the IC50 in assay [1] stood at 2430 nM; at BRD4(49-170) bromodomain it was 25000 nM.

With `CCC1C(=O)N(C)Cc2c(-c3cccc4nc(-c5cnn(C)c5)c(C(F)F)cc34)nc(C3CCOCC3)n21` (single isomer, unassigned) [Example 64b, 1-(3-(difluoromethyl)-2-(1-methyl-1H-pyrazol-4-yl)quinolin-5-yl)-5-ethyl-7-methyl-3-(tetrahydro-2H-pyran-4-yl)-7,8-dihydroimidazo[1,5-a] pyrazin-6(5H)-one], the IC50 was found to be 46 nM in assay [1] and 729 nM on BRD4(49-170) bromodomain.

For `CC1C(=O)N(C)Cc2c(-c3c(F)ccc4cc(-c5ccn(C)n5)ncc34)nc(C3CCOCC3)n21` (single isomer, unassigned) [Example 90a, 1-(7-fluoro-3-(1-methyl-1H-pyrazol-3-yl)isoquinolin-8-yl)-5,7-dimethyl-3-(tetrahydro-2H-pyran-4-yl)-7,8-dihydroimidazo[1,5a] pyrazin-6(5H)-one], the IC50 in assay [1] is 1000 nM; at BRD4(49-170) bromodomain, 25000 nM.

Turning to `CC1C(=O)N(C)Cc2c(-c3c(F)ccc4cc(-c5ccn(C)n5)ncc34)nc(C3CCOCC3)n21` (single isomer, unassigned) [Example 90b, 1-(7-fluoro-3-(1-methyl-1H-pyrazol-3-yl)isoquinolin-8-yl)-5,7-dimethyl-3-(tetrahydro-2H-pyran-4-yl)-7,8-dihydroimidazo[1,5a] pyrazin-6(5H)-one], the half-inhibitory concentration (IC50) in assay [1] came out at 4 nM; at BRD4(49-170) bromodomain, 879 nM.

These data come from US10899769B2, “Imidazopiperazinone inhibitors of transcription activating proteins” (Board of Regents, The University of Texas System, priority 2018, dated 2021).
